Laboratory results published in publication PMC6669608, “Evaluation of Oxasqualenoids from the Red Alga Laurencia viridis against Acanthamoeba” (Marine Drugs, 2019).

Assays:
A. castellanii = test: Measurement of ATP levels (CellTiter-Glo); format: cell-based, Acanthamoeba castellanii; settings: IC90, 24 h
Experimental: The ATP level was measured using a Cell Titer-Glo® Luminescent Cell Viability Assay (Promega, Alcobendas, Madrid). This required adding a single reagent (CellTiter-Glo® Reagent, Promega, Alcobendas, Madrid), which relies on the properties of a proprietary thermostable luciferase, generating a stable proportional luminescent signal to the amount of ATP present, which is directly proportional to the number of cells present in culture. After incubation, treated amoebas were mixed with the kit reagent into a white-wall 96-well microtiter plate (Nunc; Thermo Fisher Scientific Inc., Waltham, MA, USA) following the manufacturer’s instructions for measurement of the luminescence on a PerkinElmer spectrophotometer. The effect of the drug on the ATP production was evaluated by incubating 10^5 cells/mL with the previously calculated IC90 of DT following the manufacturer´s recommendations. As a negative control, an A. castellanii culture incubated with PYG medium was used.

[1] = test system: Acanthamoeba polyphaga trophozoites; test: In vitro activity against trophozoites of clinical strain A. polyphaga; format: cell-based, Acanthamoeba polyphaga genotype T4 ATCC 30461; settings: trophozoite stage
Experimental: (§1) Subsequently, DT was tested against two clinical isolates, A. griffini, genotype T3 obtained in a previous study and A. polyphaga genotype T4 ATCC 30461. Those strains were grown axenically in the same medium as A. castellanii Neff.
(§2) The in vitro activities of the different compounds of Laurencia were evaluated using a previously developed colorimetric assay based on the alamarBlue™ Cell Viability Reagent assay (Life Technologies, Barcelona, Spain). Briefly, 50 µL of 5 × 10⁴ trophozoites/mL were seeded onto a 96-well microtiter plate. After 15 min, the adherence of the cells to the plate bottom was confirmed by the use of the inverted microscope Leica DMIL (Leica, Wetzlar, Germany). Furthermore, 50 µL of serial dilutions of each compound was added to the 96-well microtiter plate. Finally, alamarBlue™ was placed into each well at 10% of the final volume and incubated at 26 °C with slight agitation. After 96 h, the fluorescence was measured with EnSpire Multimode Plate Reader (Perkin Elmer, Madrid, Spain) at a wavelength of 570/585 nm. The inhibitory concentration to inhibit the growth of 50% of the parasites (IC50) was calculated through nonlinear regression analysis with 95% confidence limits using the software Sigma Plot 12.0 (Systat Software Inc., London, UK). The experiments were performed three times each, allowing for standard deviation.

[2] = test system: Acanthamoeba castellanii Neff trophozoites; test: In vitro activity against Acanthamoeba trophozoites (alamarBlue colorimetric assay); format: cell-based, Acanthamoeba castellanii Neff (ATCC 30010); settings: trophozoites, 96 h, 26 °C, read-out: IC50 against Acanthamoeba castellanii Neff
Experimental: The antiamoeboid activity of the compounds was evaluated against Acanthamoeba castellanii Neff (ATCC 30010) type strain from the American Type Culture Collection. This strain was axenically incubated in PYG medium (0.75% (w/v) proteose Peptone, 0.75% (w/v) Yeast extract, and 1.5% (w/v) Glucose) supplemented with 10 µg/mL gentamicin (Sigma-Aldrich, Madrid, Spain). As for the cytotoxicity assays, murine macrophages J774A.1 (ATCC TIB-67) were used, cultivated in DMEM medium (Dulbecco’s modified eagle medium, Gibco Life Technologies, California, USA) with 10% supplement of fetal bovine serum (FBS) and 10 µg/mL gentamicin at 37 °C in a 5% CO2 incubator.
as §2

A. castellanii Neff [3] = test: Intracellular ROS production (CellROX Deep Red); format: cell-based, Acanthamoeba castellanii Neff; settings: IC90, 24 h
Experimental: Generation of intracellular ROS was detected using the CellROX® Deep Red fluorescent probe (Invitrogen, Thermo Fisher Scientific Inc., Waltham, MA, USA). The cells were treated with IC90 of DT for 24 h and exposed to CellROX® Deep Red (5 μM, 30 min) at 26 °C in the dark.

[4] = test system: Acanthamoeba griffini trophozoites; test: In vitro activity against trophozoites of clinical strain A. griffini; format: cell-based, genotype T3; settings: trophozoite stage
Experimental: as §1, §2

[5] = test system: A. castellanii Neff trophozoites; test: Plasma membrane permeability (SYTOX Green); format: cell-based, Acanthamoeba castellanii Neff; settings: IC90, 24 h
Experimental: The SYTOX Green assay was performed to detect alterations of the membrane permeability in treated cells. Briefly, 10^5 trophozoites were washed and incubated in saline solution with the SYTOX Green at a final concentration of 1 μM (Molecular Probes) for 15 min in the dark. Subsequently, DT solution was added (IC90).

[6] = test system: Acanthamoeba castellanii Neff trophozoites; test: In vitro activity against Acanthamoeba trophozoites (alamarBlue colorimetric assay); format: cell-based, Acanthamoeba castellanii Neff (ATCC 30010); settings: 42.5 µM (25 µg/mL)
A. castellanii Neff [7] = test: Analysis of mitochondrial membrane potential (JC-1); format: cell-based, Acanthamoeba castellanii Neff; settings: IC90, 24 h
Experimental: Collapse of the electrochemical gradient across the mitochondrial membrane during apoptosis was detected with the JC-1 mitochondrial membrane potential detection kit (Cell Technology, Fremont, CA, USA). After being treated with IC90 of the test compound for 24 h, the cells were centrifuged (1000 rpm × 10 min) and resuspended in JC-1 buffer. Images were taken on an EVOS FL Cell Imaging System AMF4300 (Life Technologies, San Francisco, CA, USA) from Life Technologies (Madrid, Spain). The staining pattern allows the identification of two groups in a cellular population: live cells will show only red fluorescence; cells with low mitochondrial potential, (undergoing PCD) will show a higher level of green and red fluorescence.

A. castellanii Neff [8] = test: Double-stain assay (Hoechst 33342/PI) for programmed cell death; format: cell-based, Acanthamoeba castellanii Neff; settings: IC90, 24 h
Experimental: A double-stain apoptosis detection kit (Hoechst 33342/PI) (GenScript, Piscataway, NJ, USA) and an EVOS FL Cell Imaging System AMF4300 (Life Technologies, Carlsbad, CA, USA) were used. The experiment was carried out by following the manufacturer’s recommendations, and 10^5 cells/well were incubated in a 24-well plate for 24 h with the previously calculated IC90. The double-staining pattern allows the identification of three groups in a cellular population: live cells will show only a low level of fluorescence, cells undergoing programmed cell death (PCD) will show a higher level of blue fluorescence (as chromatin condenses), and dead cells will show low-blue and high-red fluorescence (as the propidium iodide stain enters the nucleus).

## C=C(CC[C@H](O)[C@@]1(C)CC[C@H](C(C)(C)O)O1)[C@H]1CC[C@H]2O[C@@H]([C@]3(C)CC[C@@H](Br)C(C)(C)O3)CC[C@]2(C)O1 [Compound 1, dehydrothyrsiferol]
A. castellanii
  ATP level maintained after treatment: 19.52%
  decrease in the total ATP level in comparison to the negative control: 80.48%
[1]
  IC50: 73.4 ± 4.02 µM
[2]
  IC50: 12.8 ± 1.38 µM
A. castellanii Neff [3]
  reactive oxygen species (ROS) levels: increased levels of ROS
[4]
  IC50: 56.7 ± 2.09 µM
[5]
  plasma membrane permeability (SYTOX Green): showed plasmatic membrane damage
[6]
  inhibitory effect on the growth of A. castellanii trophozoites (microscopy): many of the treated cells were dead
A. castellanii Neff [7]
  mitochondrial membrane potential (JC-1): mitochondrial membrane potential collapsed
A. castellanii Neff [8]
  chromatin condensation (Hoechst 33342/propidium iodide double stain): induce chromatin condensation
